Legend:
PC3 cells = test: MTT viability drug interaction study, Chou-Talalay method; type: cell-based; conditions: low doses of SB290157 with docetaxel
Procedure: (§1) Significance was determined by repeated measures ANOVA.
Statistical analysis: Experiments were done a minimum of three times. Results were shown in terms of mean ± S.D. Student’s t-test and one-way ANOVA were used for comparisons among groups and repeated measured ANOVA was applied for determining the significance of two or more data series. Statistical tests utilized are reported in the figure legends, along with the associated P values was performed by using Origin software (OriginLab, Northampton, MA). Cell viability was examined by using MTT assay as indicated by the manufacturer (Thermo Fisher, Canoga Park, CA) for the calculation of synergistic drug interactions was performed by Chou-Talalay method (R Package).

[1] = test system: xenografts of CAF and PC3 cells; test: Subcutaneous xenograft of PC3 and CAF in male nude mice
Description: A Subcutaneous xenografts of PC3 and CAF tumor volumes were longitudinally measured. […] Representative images show each group of mice (inset). […] C Immunolocalization ofphosphorylated-TAK1, complement C3, phosphorylated-AKT, phosphorylated-histoneH3 and TUNEL expression in tumor tissues (brown) was counterstained with hematoxylin (blue). The corresponding bar graph illustrate the mean and S.D. expression of the respective staining (n=5). Data represent the mean ± S.D. by one-way ANOVA (*P <0.05; **P <0.01). The scale bar represents 10 µm.
Data represent the mean ± S.D. among groups by oneway ANOVA (ns - not significant). C H&E images of resulting tumors from each treatment group of subcutaneous xenografted mice.
Animal experiments and cultured cells: Male C57BL/6 mice aged 7-8 weeks were housed in a pathogen-free environment at the Cedars-Sinai Medical Center Animal Facility under the approval of the Institutional Animal Care and Use Committee (# 3679). Sub-renal capsule was performed with wild type mouse fibroblasts (6×10^5) or TLR9^-/- mouse fibroblasts (6×10^5) combining with mouse prostate epithelial cell TRAMP-C2 (2×10^5) . Treatment with SB290157 (1 mg/kg; i.p. daily) was started after two weeks of grafting and continued for five weeks. All mouse kidney, spleen, lymph nodes were harvested after five weeks of treatment were fixed in paraffin embedded for IHC or dissociated for FACS analysis. Subcutaneous xenograft was done in male nude mice aged 7-8 weeks in combination of PC3 (5×10^5) and CAF (15×10^5). […] Harvested tissues were fixed in paraffin embedded for IHC or dissociated for immunoblot analysis.
Immunodetection: Paraffin embedded tissue were processed for Immunohistochemical localization was performed with antibodies against p-AKT, p-TAK, p-histoneH3 (Cell Signaling, Danvers, MA), C3 (Santa Cruz Biotechnology, Santa Cruz, CA), and TUNEL (Thermo Fisher Scientific Inc.) as previously described before (52, 53). All the slides were scanned using Leica SCN400 (Leica Micro System, Buffalo Grove, IL) and analyzed by Tissue IA Optimizer (Leica). The values of positively stained cells were measured in an unbiased manner. C3a concentration of cultured medium and serum was assayed by sandwich ELISA using human C3a ELISA kit (BD Bioscience, San Jose, CA) according to the manufacturer’s instructions. Western blots separated by 10, 12, or 15% SDS-polyacrylamidegels were incubated with primary antibodies for TLR9, DEC205 (LS Bio Seattle, WA), phospho-TAK1, TAK1, phospho-AKT, AKT, phosphor-ERK1/2, ERK, BCL2, beclin, CHOP (Cell Signaling), LC3 (Abcam, Cambridge, MA), C3 (Santa Cruz Biotechnology) and p62 (ProgenBiotechnik, Heidelberg, Germany). Western blots were visualized using alkaline phosphatase-conjugated secondary antibodies (Sigma-Aldrich). The ELISA for anaphylatoxin C3a for performed according to manufacturer guidelines (LSBio Inc.).

[2] = test system: TRAMPC2 with wild type fibroblasts allografts; test: Sub-renal capsule allograft of TRAMPC2 with wild type fibroblasts in C57BL/6 mice; type: in vivo, mouse
Procedure: FIG. 3, panels A-E, depicts Role of C3a in PCa progression. A PCa cell lines incubated in the absence and presence of C3a receptor agonist peptide (48 hr) was western blotted for cell survival and proliferation protein expression. B C57BL/6 mice were allografted with tissue recombinants of luciferase-expressing TRAMPC2 with wild type (wt) or Tlr9^-/-fibroblasts. The mice were treated with saline or […], SB290157. Luciferase bioluminescence was used to image tumor progression. C Mean tumor volume (mm^3) and standard deviation (S.D.) for each treatment condition are depicted (n=8). D H&E and immunohistochemistry for phosphorylated-AKT, phosphorylated-histone-H3 and TUNEL staining of the tumor tissues were performed and quantitated. […] The scale bar represents 10 µm.
To validate the observation of C3a signaling, we allografted mouse prostatic fibroblasts with PCa epithelia into syngeneic C57B/6 mice. We grafted either wild type or TLR9-knockout fibroblasts and recombined them with luciferase-expressing TRAMPC2 cells under the renal capsule. After the tumors were visible by bioluminescent imaging, the mice were treated with either vehicle (control) or SB290157, a C3aR antagonist. […] We were only able to perform immunohistochemistry on the grafts with wild type fibroblasts and TRAMPC2, as not enough tissue was available from grafts with TLR9-knockout fibroblasts. […] The activation of AKT, localized by phosphorylated AKT staining, was elevated in the tumor cells of mouse allografted with wild type fibroblasts and reversed in SB290157 treated mice.
Complement anaphylatoxins have a wide spectrum of proinflammatory effects. C3a is particularly regarded for the chemotaxis of mast cells, basophils and eosinophils. As T lymphocytes are confirmed regulators of tumor progression and known to respond to C3a, we measured the impact of C3a antagonism on T cell recruitment to the tumors.

PC3 and CAF co-culture = test: 3D organotypic co-culture of PC3 and CAF, EpCAM+/Ki67+ FACS; type: cell-based; conditions: PC3 and CAF 3D co-culture, 48 hours
Procedure: as §1
3D organotypic co-culture: 3D organotypic co-culture was performed in a collagen matrix. PC3 and CAF were combined in a 1:3 ratio in collagen matrix contain 50% rat tail collagen I, 20% of matrigel, 10% of 10x DMEM medium and 1x ready DMEM 5%, 1x ready RPMI 5%, FBS 5% and Nu serum 5%. Cells were treated with docetaxel and SB290157 for 48 hours after 72 hours of expansion in the matrix. The cells were dissociated from the matrix with collagenase and dispase for Ki67 FACS analysis.

[3] = western blot, SB290157 with docetaxel

For `NC(N)=NCCC[C@H](NC(=O)COCC(c1ccccc1)c1ccccc1)C(=O)O` [SB290157], the “fractional inhibitory concentration index” value (PC3 cells) was < 0.5, the “apoptosis (TUNEL)” value ([1]; SB290157 with docetaxel compared to docetaxel alone) was “did not result in greater apoptosis” and the tumor growth ([1]; combined treatment of docetaxel (6 mg/kg/week) and SB290157 (1 mg/kg IP every day), P < 0.05) was “significantly limited tumor growth”. The “phosphorylation of AKT and phosphorylated histone-H3 (cell survival pathway and mitosis)” value ([1]; immunohistochemistry, combined treatment of docetaxel and SB290157 versus docetaxel) was “significantly diminished”, the “AKT and ERK1/2 phosphorylation in tumor tissues” value [1, 3] was “reduced AKT and ERK1/2 phosphorylation” and the “Blc2 in tumor tissues” value [1, 3] was “reduced”. The tumor size ([2]; 1 mg/kg i.p. daily, versus vehicle treated mice) was “significantly smaller tumor size”, the “CD3+ T cells recruited to the tumors” value ([2]; FACS of tumor tissues) was “similarly recruited” and the “CD8+ T cell activation (CD69+ expression)” value ([2]; FACS of tumor tissues) was “appreciably downregulated”. For the same compound, the “activation of AKT (phosphorylated AKT staining)” value ([2]; immunohistochemistry of grafts) was “reversed”, the “cell death (TUNEL staining)” value ([2]; immunohistochemistry of grafts) was “elevate cell death” and the “tumor cell mitosis (phosphorylated-histone H3 expression), tumor proliferation” value ([2]; immunohistochemistry of grafts, 1 mg/kg i.p. daily, 1 mg/kg) was “significantly diminish tumor proliferation”. The “tumor cell mitosis (phosphorylated-histone H3 expression), tumor proliferation” value ([2]; immunohistochemistry of grafts, 1 mg/kg i.p. daily, listed as SB29157, 1 mg/kg) was “significantly lower” and the “EpCAM+/Ki67+ proliferative epithelial fraction” value (PC3 and CAF co-culture) was “restored the sensitivity of PC3 cells to docetaxel”.

From patent US20230121867A1, “COMPOSITIONS AND METHODS FOR TREATING DISEASES AND CONDITIONS BY DEPLETION OF MITOCHONDRIAL OR GENOMIC DNA FROM CIRCULATION” (Cedars-Sinai Medical Center, priority 2019, published 2023)
